Data taken from patent publication US20060069132A1, “Azolecarboxamide herbicides” (priority 2004, published 2006).

Tests used:
barnyardgrass [1] = experiment: Test B flooded paddy test; format: in vivo, Echinochloa crus-galli; details: 1000 g ai/ha, visual rating, scale 0 to 100 (0 no effect, 100 complete control), 13 to 15 days
Method in brief: (§1)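 Formulated test chemicals went onto postemergence plants measuring 2 to 18 cm, at one to four leaves. For the paddy assay, species had reached two leaves. Scoring took place 13–15 days later by eye, relative to untreated plants, using 0 for no effect up to 100 for full control.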

[2] = system: small flower umbrella sedge; experiment: Test B flooded paddy test; format: in vivo, Cyperus difformis; details: 1000 g ai/ha, visual rating, scale 0 to 100 (0 no effect, 100 complete control), 13 to 15 days
Method in brief: as §1

pigweed = experiment: Test B pre-/postemergence herbicide test; format: in vivo, Amaranthus retroflexus; details: for Pigweed plant response rating: postemergence, visual rating
Method in brief: (§2)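 Seeds were planted and treated preemergence with compounds formulated in a non-phytotoxic solvent mixture containing surfactant, while plants at the 1- to 4-leaf stage (2 to 18 cm) received postemergence sprays. Flooded paddy plants were grown to the 2-leaf stage. After 13 to 15 days in a greenhouse, injury was visually rated 0–100 against untreated controls.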

Surinam grass = experiment: Test B pre-/postemergence herbicide test; format: in vivo, Urochloa decumbens; details: for Surinam Grass plant response rating: postemergence, visual rating
Method in brief: as §2

corn = experiment: Test B pre-/postemergence herbicide test; format: in vivo, Zea mays
Method in brief: as §2

giant foxtail = experiment: Test B pre-/postemergence herbicide test; format: in vivo, Setaria faberi
Method in brief: as §2

wheat = experiment: Test B postemergence herbicide test; format: in vivo, Triticum aestivum; design: key to Wheat plant response rating: 0 = no effect, 100 = complete control; details: scale 0 (no effect) to 100 (complete control); for Plant response rating, Wheat: Postemergence, 500 g ai/ha, visual rating after 13 to 15 days; for Wheat plant response rating: postemergence, 125 g ai/ha, visual rating
Method in brief: (§3)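 After treating 2-leaf paddy plants or 2–18 cm postemergence plants (1 to 4 leaves) with formulated chemical, researchers kept them in a greenhouse for 13–15 days. Effects were judged visually versus controls: 0 indicates none, 100 total control.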

cocklebur = experiment: Test B pre-/postemergence herbicide test; format: in vivo, Xanthium strumarium
Method in brief: (§4)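 Plants compared with untreated controls 13–15 days post-treatment and given a visual 0–100 injury score. Applications: preemergence to seeds; postemergence at 1- to 4-leaf (2–18 cm); paddy species flooded, 2-leaf stage. Vehicle non-phytotoxic, surfactant included.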

ducksalad = experiment: Test B flooded paddy test; format: in vivo, Heteranthera limosa; details: 1000 g ai/ha, visual rating, scale 0 to 100 (0 no effect, 100 complete control), 13 to 15 days
Method in brief: as §1

velvetleaf = experiment: Test B pre-/postemergence herbicide test; format: in vivo, Abutilon theophrasti; details: for Velvetleaf plant response rating: postemergence, visual rating
Method in brief: as §2

blackgrass = experiment: Test B postemergence herbicide test; format: in vivo, Alopecurus myosuroides; details: scale 0 (no effect) to 100 (complete control); for Plant response rating, Blackgrass: Postemergence, 500 g ai/ha, visual rating after 13 to 15 days; for Blackgrass plant response rating: postemergence, 125 g ai/ha, visual rating
Method in brief: as §1

rice = experiment: Test B flooded paddy test; format: in vivo, Oryza sativa; details: 1000 g ai/ha, visual rating, scale 0 to 100 (0 no effect, 100 complete control), 13 to 15 days
Method in brief: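 Visual ratings, 0 (no effect) to 100 (complete control), made versus controls after 13–15 d greenhouse. Paddy plants treated at 2-leaf stage; postemergence plants at 1- to 4-leaf stage, 2–18 cm tall.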

barnyardgrass [3] = experiment: Test B pre-/postemergence herbicide test; format: in vivo, Echinochloa crus-galli
Method in brief: as §4

large crabgrass = experiment: Test B pre-/postemergence herbicide test; format: in vivo, Digitaria sanguinalis
Method in brief: as §2

wild oat = experiment: Test B postemergence herbicide test; format: in vivo, Avena fatua; details: scale 0 (no effect) to 100 (complete control); for Plant response rating, Oat, Wild: Postemergence, 500 g ai/ha, visual rating after 13 to 15 days; for Oat, Wild plant response rating: postemergence, 125 g ai/ha, visual rating
Method in brief: as §3

[4] = Postemergence, 500 g ai/ha, visual rating after 13 to 15 days, scale 0 (no effect) to 100 (complete control)
[5] = 125 g ai/ha, scale 0 (no effect) to 100 (complete control)
[6] = preemergence, 125 g ai/ha, 0 to 100 scale, 0 is no effect, 100 is complete control
[7] = Preemergence, 500 g ai/ha, scale 0 to 100
[8] = postemergence, 125 g ai/ha, visual rating, scale 0 (no effect) to 100 (complete control)

SMILES	Barnyardgrass plant response rating (barnyardgrass [1])	Sedge, Umbrella plant response rating [2]	Plant response rating, Pigweed (pigweed; [4])	Pigweed plant response rating (pigweed; [5])	Plant response rating, Pigweed (pigweed; [6])	Plant response rating, Surinam Grass (Surinam grass; [4])	Surinam Grass plant response rating (Surinam grass; [5])	Plant response rating, Surinam Grass (Surinam grass; [6])	Plant response rating, Corn (corn; [6])	Plant response rating, Foxtail, Giant (giant foxtail; [4])	Foxtail, Giant plant response rating (giant foxtail; [7])	Foxtail, Giant plant response rating (giant foxtail; [8])	Plant response rating, Foxtail, Giant (giant foxtail; [6])	Plant response rating, Wheat (wheat)	Wheat plant response rating (wheat)	Plant response rating, Cocklebur (cocklebur; [4])	Cocklebur plant response rating (cocklebur; [7])	Cocklebur plant response rating (cocklebur; [8])	Plant response rating, Cocklebur (cocklebur; [6])	Ducksalad plant response rating (ducksalad)	other results
CCn1nc(C(C)(C)C)cc1C(=O)Nc1ccc(F)c(C(=O)NCCF)c1 [Compound 60]	60	60	70	70	90	20	10	10	0	20	100	10	40	0	0	70	0	40	0	70	Plant response rating, Corn (corn; [4]): 20; Corn plant response rating (corn; [7]): 0; Corn plant response rating (corn; [8]): 10; Plant response rating, Velvetleaf (velvetleaf; [4]): 60; Velvetleaf plant response rating (velvetleaf; [5]): 20; Plant response rating, Velvetleaf (velvetleaf; [6]): 10; Plant response rating, Blackgrass (blackgrass): 0; Blackgrass plant response rating (blackgrass): 0; Rice plant response rating (rice): 50; Plant response rating, Barnyardgrass (barnyardgrass [3]; [4]): 10; Barnyardgrass plant response rating (barnyardgrass [3]; [7]): 100; Barnyardgrass plant response rating (barnyardgrass [3]; [8]): 10; Plant response rating, Barnyardgrass (barnyardgrass [3]; [6]): 50; Plant response rating, Crabgrass, Large (large crabgrass; [4]): 20; Crabgrass, Large plant response rating (large crabgrass; [7]): 100; Crabgrass, Large plant response rating (large crabgrass; [8]): 10; Plant response rating, Crabgrass, Large (large crabgrass; [6]): 90; Plant response rating, Oat, Wild (wild oat): 20; Oat, Wild plant response rating (wild oat): 20
CCn1nc(C(C)(C)C)cc1C(=O)Nc1cccc(C(=O)NOC)c1 [Compound 67]	60	80	20	0	0	10	10	0	0	10	10	10	0	10	10	70	0	0	0	80	Plant response rating, Corn (corn; [4]): 10; Corn plant response rating (corn; [8]): 10; Plant response rating, Velvetleaf (velvetleaf; [4]): 10; Velvetleaf plant response rating (velvetleaf; [5]): 10; Plant response rating, Velvetleaf (velvetleaf; [6]): 0; Plant response rating, Blackgrass (blackgrass): 10; Blackgrass plant response rating (blackgrass): 10; Rice plant response rating (rice): 60; Plant response rating, Barnyardgrass (barnyardgrass [3]; [4]): 10; Barnyardgrass plant response rating (barnyardgrass [3]; [7]): 80; Barnyardgrass plant response rating (barnyardgrass [3]; [8]): 10; Plant response rating, Barnyardgrass (barnyardgrass [3]; [6]): 0; Plant response rating, Crabgrass, Large (large crabgrass; [4]): 10; Crabgrass, Large plant response rating (large crabgrass; [7]): 20; Crabgrass, Large plant response rating (large crabgrass; [8]): 10; Plant response rating, Crabgrass, Large (large crabgrass; [6]): 0; Plant response rating, Oat, Wild (wild oat): 30; Oat, Wild plant response rating (wild oat): 10
CCOC(=O)c1cccc(NC(=O)c2cc(C(C)(C)C)nn2CCF)c1 [Compound 79]	60	90	100	70	0	40	30	0	0	40	10	30	10	40	30	80	0	80	0	80	Corn plant response rating (corn; [7]): 0; Plant response rating, Velvetleaf (velvetleaf; [4]): 80; Velvetleaf plant response rating (velvetleaf; [5]): 70; Plant response rating, Velvetleaf (velvetleaf; [6]): 10; Plant response rating, Blackgrass (blackgrass): 30; Blackgrass plant response rating (blackgrass): 20; Rice plant response rating (rice): 70; Plant response rating, Barnyardgrass (barnyardgrass [3]; [4]): 40; Barnyardgrass plant response rating (barnyardgrass [3]; [7]): 10; Barnyardgrass plant response rating (barnyardgrass [3]; [8]): 30; Plant response rating, Barnyardgrass (barnyardgrass [3]; [6]): 0; Plant response rating, Crabgrass, Large (large crabgrass; [4]): 30; Crabgrass, Large plant response rating (large crabgrass; [7]): 0; Crabgrass, Large plant response rating (large crabgrass; [8]): 20; Plant response rating, Crabgrass, Large (large crabgrass; [6]): 0; Plant response rating, Oat, Wild (wild oat): 30; Oat, Wild plant response rating (wild oat): 20
CCn1nc(C(C)(C)C)cc1C(=O)Nc1cccc(C(=O)OC)c1 [Compound 81]	50	80	90	50	20	60	40	0	0	50	60	20	10	40	20	90	0	70	0	80	Plant response rating, Corn (corn; [4]): 30; Corn plant response rating (corn; [7]): 0; Corn plant response rating (corn; [8]): 10; Plant response rating, Velvetleaf (velvetleaf; [4]): 90; Velvetleaf plant response rating (velvetleaf; [5]): 80; Plant response rating, Velvetleaf (velvetleaf; [6]): 0; Plant response rating, Blackgrass (blackgrass): 20; Blackgrass plant response rating (blackgrass): 0; Rice plant response rating (rice): 60; Plant response rating, Barnyardgrass (barnyardgrass [3]; [4]): 90; Barnyardgrass plant response rating (barnyardgrass [3]; [7]): 60; Barnyardgrass plant response rating (barnyardgrass [3]; [8]): 70; Plant response rating, Barnyardgrass (barnyardgrass [3]; [6]): 10; Plant response rating, Crabgrass, Large (large crabgrass; [4]): 20; Crabgrass, Large plant response rating (large crabgrass; [7]): 10; Crabgrass, Large plant response rating (large crabgrass; [8]): 10; Plant response rating, Crabgrass, Large (large crabgrass; [6]): 0; Plant response rating, Oat, Wild (wild oat): 30; Oat, Wild plant response rating (wild oat): 20
